Results on 4 compounds are retold here after patent US6262051A, “Fungicidal methoximinomethyldioxazines” (Bayer Aktiengesellschaft, priority 1997, dated 2001).

The nature of data set [1]: HPLC logP. It is filed as physicochemical. As to conditions: Table 1.
Data set [2] deals with Plasmopara viticola. Kind of data set: Example D: Plasmopara test (grapevine)/protective. The conditions noted are these: Plasmopara viticola, 144 h, protective, 6 days after inoculation, vs untreated control, read-out: Efficacy in %. The format is in vivo. As for the experimental part: Plasmopara test (grapevine)/protective Solvent: 47 parts by weight of acetone Emulsifier: 3 parts by weight of alkylaryl polyglycol ether To produce a suitable preparation of active compound, 1 part by weight of active compound is mixed with the stated amount of solvent and emulsifier, and the concentrate is diluted with water to the desired concentration. To test for protective activity, young plants are sprayed with the preparation of active compound at the stated application rate. […]

Data set [3] concerns Erysiphe graminis f.sp. hordei. Kind of data set: Example C: Erysiphe test (barley)/protective (N,N-dimethylacetamide). The format is in vivo. As to conditions: protective, solvent N,N-dimethylacetamide, 250 g/ha, 7 days after inoculation, vs untreated control. Here is the method:
(§1) Erysiphe test (barley)/protective Solvent: 25 parts by weight of N,N-dimethylacetamide Emulsifier: 0.6 part by weight of alkylaryl polyglycol ether To produce a suitable preparation of active compound, 1 part by weight of active compound is mixed with the stated amount of solvent and emulsifier, and the concentrate is diluted with water to the desired concentration. To test for protective activity, young plants are sprayed with the preparation of active compound at the stated application rate. After the spray coating has dried on, the plants are dusted with spores of Erysiphe graminis f.sp. hordei. The plants are placed in a greenhouse at a temperature of approximately 20° C. and a relative atmospheric humidity of approximately 80% to promote the development of mildew postules.

In data set [4] the test system is Erysiphe graminis f.sp. hordei. Kind of data set: Example A: Erysiphe test (barley)/protective (N-methyl-pyrrolidone). It is filed as in vivo. As to conditions: protective, 250 g/ha, 7 days after inoculation, vs untreated control. Here is the method:
as §1, with “Solvent: 10” for “Solvent: 25”, “of N-methyl-pyrrolidone” for “of N,N-dimethylacetamide”, “0.6 parts” for “0.6 part”

Data set [5] has as its system Pyricularia oryzae. It is filed as in vivo. The conditions noted are these: rice, protective; 750 g/ha; 4 days after inoculation; vs untreated control.
In data set [6] the test system is Erysiphe graminis f.sp. hordei. Kind of data set: Example B: Erysiphe test (barley)/curative. The format is in vivo. The conditions noted are these: curative (sprayed 48 hours after inoculation), 250 g/ha, 7 days after inoculation, vs untreated control. Here is the method:
Erysiphe test (barley)/curative Solvent: 10 parts by weight of N-methyl-pyrrolidone Emulsifier: 0.6 part by weight of alkylaryl polyglycol ether To produce a suitable preparation of active compound, 1 part by weight of active compound is mixed with the stated amount of solvent and emulsifier, and the concentrate is diluted with water to the desired concentration. To test for curative activity, young plants are dusted with spores of Erysiphe graminis f.sp. hordei. 48 hours after the inoculation, the plants are sprayed with the preparation of active compound at the stated application rate. The plants are placed in a greenhouse at a temperature of approximately 20° C. and a relative atmospheric humidity of approximately 80% to promote the development of mildew postures.

In data set [7] the test system is Sphaerotheca fuliginea. Kind of data set: Example E: Sphaerotheca test (cucumber)/protective. The format is in vivo. The conditions noted are these: protective, 100 g/ha, 10 days after inoculation, vs untreated control. As for the experimental part:
Sphaerotheca test (cucumber)/protective Solvent: 47 parts by weight of acetone Emulsifier: 3 parts by weight of alkylaryl polyglycol ether To produce a suitable preparation of active compound, 1 part by weight of active compound is mixed with the stated amount of solvent and emulsifier, and the concentrate is diluted with water to the desired concentration. To test for protective activity, young plants are sprayed with the preparation of active compound at the stated application rate. After the spray coating is dried on, the plants are inoculated with an aqueous spore suspension of Sphaerotheca fuliginea.

For orientation: chromatographic logP means a lipophilicity value derived from retention on a column. In turn, `CCCCCCOc1ccnc(Oc2ccccc2C(=NOC)C2=NOCCO2)n1` [Example 13] registered a chromatographic logP in data set [1] of 3.8. In addition, the pest or weed control at 100 g/ha in data set [2] was no more than 100%. For the same compound, the Efficacy in % in data set [3] amounted to 100%.
The compound `CON=C(C1=NOCCO1)c1ccccc1Oc1nccc(OCC(F)(F)F)n1` [Example 3] displayed a chromatographic logP in data set [1] of 2.6. In addition, the results for the Efficacy in % in data set [4], in data set [5] and in data set [6] were 100%, “at least 70%” and 100%, respectively. Further, in data set [2], the pest or weed control at 100 g/ha is no more than 100%.
Take `CCOc1ccnc(Oc2ccccc2C(=NOC)C2=NOCCO2)n1` [Example 5]: the chromatographic logP in data set [1] turned out to be 2.2. In data set [5], the Efficacy in % result was “at least 70%”.
As for `CCCOc1ccnc(Oc2ccccc2C(=NOC)C2=NOCCO2)n1` [Example 6], the Efficacy in % result in data set [7] is on record as “more than 90%”; in data set [5] it was “at least 70%”; in data set [6], 100%. The compound further gave a chromatographic logP in data set [1] of 2.5.
